In PubChem BioAssay (NCI):
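1) Cells in 96-well plates. 2) Compound, 48 h, 5 concentrations. 3) Linear interpolation between surrounding doses. 4) Unreached endpoint = highest concentration. TGI denotes the concentration required for complete inhibition of growth.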

Legend:
Test in all cases: NCI tumour cell line growth inhibition, 48 h
[1] = system: BT-549 breast
[2] = system: DLD-1 colon
[3] = system: DMS 273 small cell lung
[4] = system: HS 578T breast
[5] = system: KM20L2 colon
[6] = system: MDA-MB-435
[7] = system: MDA-N
[8] = system: P388 leukemia
[9] = system: P388/ADR leukemia
[10] = system: SN12K1 renal
[11] = system: T-47D breast
[12] = system: RXF-631 renal

| Compound | TGI [1] | TGI [2] | TGI [3] | TGI [4] | TGI [5] | TGI [6] | TGI [7] | TGI [8] | TGI [9] | TGI [10] | TGI [11] | TGI [12] |
| --- | --- | --- | --- | --- | --- | --- | --- | --- | --- | --- | --- | --- |
| C[C@@H](CN1CC(=O)NC(=O)C1)N1CC(=O)NC(=O)C1 | 783 µM | 1090 µM | 626 µM | 1810 µM | 1290 µM | 1470 µM | 680 µM | 2500 µM | 2180 µM | 541 µM | 1020 µM |  |
| O=C1c2ccccc2NC1(c1ccccc1)c1c(-c2ccccc2)[nH]c2ccccc12 (stereo unspecified) |  | > 100 µM | > 100 µM |  | > 100 µM |  |  |  |  |  |  | > 100 µM |
| CC1=C(C(=O)Nc2cc(=O)n(C)c(=O)n2C)C(c2ccc([N+](=O)[O-])cc2)C(C(=O)Nc2cc(=O)n(C)c(=O)n2C)=C(C)N1 |  | > 100 µM |  |  | > 100 µM |  |  |  |  |  |  | > 100 µM |
| CN1C(c2ccccc2)CS(=O)(=O)CS1(=O)=O (stereo unspecified) |  | > 100 µM | > 100 µM |  | > 100 µM |  |  |  |  |  |  | > 100 µM |
| COc1ccc(Cc2cc3c(cc2OCC(=O)O)OCO3)cc1 |  | > 100 µM |  |  | > 100 µM |  |  |  |  |  |  | > 100 µM |
| Cc1ccc(NC(=O)C(=O)CC(=O)C2CCOC2=O)c(C)c1 (stereo unspecified) |  | > 100 µM | > 100 µM |  | > 100 µM |  |  |  |  |  |  | > 100 µM |
| O=C(O)/C(Cl)=C(\Cl)C(=O)NC1C2CC3CC(C2)CC1C3 (stereo unspecified) |  | > 100 µM | > 100 µM |  | > 100 µM |  |  |  |  |  |  | > 100 µM |
| O/N=C1/C(=C/c2ccc(Oc3ccccc3)cc2)CCCC1C(NO)c1ccc(Oc2ccccc2)cc1 (stereo unspecified) |  | > 100 µM | > 100 µM |  | 26.7 µM |  |  |  |  |  |  | > 100 µM |
| COc1cc(O)c2c(c1)C(=O)C=C(Cl)C2=O |  | > 100 µM | > 100 µM |  | > 100 µM |  |  |  |  |  |  | > 100 µM |
| Cc1ccccc1C(=O)Oc1ccc(O)cc1 |  | > 100 µM | > 100 µM |  | > 100 µM |  |  |  |  |  |  | > 100 µM |
| COc1cc2c(cc1OC)C(OC)N(C)c1c-2ccc2cc3c(cc12)OCO3 (stereo unspecified) | > 75 µM | 61.2 µM | 14.4 µM |  | 6.5 µM | > 75 µM | > 75 µM | 4.98 µM | 13 µM | 2.05 µM |  |  |
| COc1ccc(C[C@@H]2NC[C@@H](O)[C@@H]2OC(C)=O)cc1 | 0.145 µM | 13.8 µM | > 100 µM | 0.169 µM | > 100 µM | 0.0883 µM |  |  |  |  | 0.193 µM |  |
| O=S(=O)(SCc1ccccc1)C(c1ccccc1)c1ccccc1 |  | 55.4 µM | > 100 µM |  | 40.5 µM |  |  |  |  |  |  |  |
| Cc1ccc(C2NC(=O)c3ccccc3N2)s1 (stereo unspecified) |  | > 100 µM | > 100 µM |  | 39.3 µM |  |  |  |  |  |  |  |
| Cc1nc(-c2ccccc2)cc2c1c(=O)oc1ccccc12 |  | > 100 µM | > 100 µM |  | > 100 µM |  |  |  |  |  |  | > 100 µM |
| CC(C)C1CC2C(=O)N(c3ccccc3)C(=O)C2c2[nH]c3ccccc3c21 (stereo unspecified) |  | > 100 µM | 29.2 µM |  | > 100 µM |  |  |  |  |  |  |  |
| CN(CCc1ccccn1)c1nc(=[N+](C)C)ss1 |  | > 100 µM | > 100 µM |  | > 100 µM |  |  |  |  |  |  | > 100 µM |
| CN(/N=C/c1cccc2cccnc12)c1ccc([N+](=O)[O-])cc1 |  | > 100 µM | > 100 µM |  | > 100 µM |  |  |  |  |  |  |  |
| O=C(Cc1nc2ccccc2s1)C(=O)Nc1cccc(Cl)c1 |  | > 100 µM | > 100 µM |  | > 100 µM |  |  |  |  |  |  | > 100 µM |
| CN(CC#N)C1CCCC[C@H]1O (stereo partly specified) |  | > 100 µM | > 100 µM |  | > 100 µM |  |  |  |  |  |  |  |
| COc1ccc(N/N=C(\CCN(C)C)c2ccccc2)cc1 |  | 11.9 µM | 11.1 µM |  | 1.71 µM |  |  |  |  |  |  |  |
